One experiment deals with T1, human M2-receptors (Homo sapiens, UniProt P08172).
T1 construct: expressed in transfected cells; host or cells: CHO-K1 clone cells; crude membrane fraction
T1 sequence (P08172 1-466): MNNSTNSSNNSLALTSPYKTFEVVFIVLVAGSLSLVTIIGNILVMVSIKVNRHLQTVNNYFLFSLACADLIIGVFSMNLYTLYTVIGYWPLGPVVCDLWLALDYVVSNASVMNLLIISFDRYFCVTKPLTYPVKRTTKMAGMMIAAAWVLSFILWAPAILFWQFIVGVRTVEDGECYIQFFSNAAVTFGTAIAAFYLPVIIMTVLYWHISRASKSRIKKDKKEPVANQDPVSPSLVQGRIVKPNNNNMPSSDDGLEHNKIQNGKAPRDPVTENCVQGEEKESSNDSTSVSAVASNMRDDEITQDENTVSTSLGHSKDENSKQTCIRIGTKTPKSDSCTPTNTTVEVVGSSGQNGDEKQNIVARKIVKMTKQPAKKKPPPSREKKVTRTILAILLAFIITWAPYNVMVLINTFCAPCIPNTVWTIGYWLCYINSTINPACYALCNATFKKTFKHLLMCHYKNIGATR
The experiment is described as follows: radioligand binding assay, M2 receptor ([3H]-N-methyl scopolamine). Particulars: membranes of CHO-K1 cells expressing human M2; [3H]-N-methyl scopolamine 0.1-0.3 nM; 60 min, room temperature. Here is the method: (§1) Cell Lines and Membrane Preparations
(§2) CHO—K1 clone cells expressing the human M1, M2 or M3-receptors (Swissprot P11229, P08172, P20309 respectively) were harvested in Ca^++/Mg^++ free phosphate-buffered saline and collected by centrifugation at 1500 rpm for 3 min. The pellets were resuspended in ice cold buffer A (15 mM Tris-HCl pH 7.4, 2 mM MgCl2, 0.3 mM EDTA, 1 mM EGTA) and homogenized by a PBI politron (setting 5 for 15 s).
(§3) Radioligand Binding Conditions
(§4) The day of experiment, frozen membranes were resuspended in buffer C (50 mM Tris-HCl pH 7.4, 2.5 mM MgCl2, 1 mM EDTA). […] The non specific binding was determined in the presence of cold N-methyl scopolamine 10 μM. Samples (final volume 0.75 ml) were incubated at room temperature for 120 min for Ml, 60 min for M2 and 90 min for M3 binding assay. The reaction was terminated by rapid filtration through GF/B Unifilter plates and two washes (0.75 ml) with cold buffer C using a Packard Filtermate Harvester. Radioactivity on the filters was measured by a microplate scintillation counter TopCount NXT (Camberra Packard).

In a further experiment the target is T2, human M3-receptors (Homo sapiens, UniProt P20309).
T2 construct: expressed in transfected cells; host or cells: CHO-K1 clone cells; crude membrane fraction
Nature of the experiment: radioligand binding assay, M3 receptor ([3H]-N-methyl scopolamine). The settings on record: membranes of CHO-K1 cells expressing human M3; [3H]-N-methyl scopolamine 0.1-0.3 nM; 90 min, room temperature. Here is the method: as §1, §2, §3, §4

T2 sequence (P20309 whole entry): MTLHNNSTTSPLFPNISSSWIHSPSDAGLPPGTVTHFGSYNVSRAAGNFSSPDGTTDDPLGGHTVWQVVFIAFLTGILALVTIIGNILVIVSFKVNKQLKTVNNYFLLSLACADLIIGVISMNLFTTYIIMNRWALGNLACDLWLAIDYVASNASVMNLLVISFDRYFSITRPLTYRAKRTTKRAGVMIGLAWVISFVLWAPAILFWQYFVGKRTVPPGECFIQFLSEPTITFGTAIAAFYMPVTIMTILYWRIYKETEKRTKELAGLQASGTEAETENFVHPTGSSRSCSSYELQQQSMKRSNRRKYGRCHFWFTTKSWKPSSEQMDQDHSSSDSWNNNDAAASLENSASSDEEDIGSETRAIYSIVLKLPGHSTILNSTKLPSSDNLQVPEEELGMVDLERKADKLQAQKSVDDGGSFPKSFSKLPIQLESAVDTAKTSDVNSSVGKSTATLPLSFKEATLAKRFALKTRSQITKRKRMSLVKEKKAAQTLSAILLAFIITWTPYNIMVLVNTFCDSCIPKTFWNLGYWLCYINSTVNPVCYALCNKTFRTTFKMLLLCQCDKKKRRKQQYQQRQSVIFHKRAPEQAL

Compound `O=C1NC(c2ccc(F)cc2)(c2ccc(F)cc2)CN1C1CCN(Cc2cccc(Cl)c2)CC1` [Compound 18ab] came in with an inhibitory constant (Ki) at human M2-receptors of 955 nM.
Take `O=C1NC(c2ccccc2)(c2ccccc2)CN1C1CCN(Cc2ccccc2)CC1` [Compound 27a, 3-(1-benzyl-piperidin-4-yl)-5 5-diphenyl-imidazolidin-2-one]: affinity at human M2-receptors was put at a Ki of 80.1 nM.
`Cc1cccc(CN2CCC(N3CC(c4ccccc4)(c4ccccc4)NC3=O)CC2)c1` [Compound 18i] had a Ki at human M2-receptors of 224 nM.
For the compound `O=C1NC(c2cccs2)(c2cccs2)CN1C1CCN(Cc2cccc(F)c2)CC1` [Compound 18ad], at human M2-receptors, the inhibitory constant (Ki) came to 187 nM.
As to `C[N+]1(CC(=O)c2cccs2)CC[C@@H](N2CC(c3ccc(F)cc3)(c3ccc(F)cc3)NC2=O)C1` (some centres unmarked) [Compound 19bq], the inhibition constant (Ki) was 88.5 nM at human M2-receptors and 1.62 nM at human M3-receptors.
`Cc1cccc(CN2CCC(N3CC(c4cccs4)(c4cccs4)NC3=O)CC2)c1` [Compound 18ag] showed a Ki at human M2-receptors of 107 nM.
In the case of `O=C1NC(c2ccccc2)(c2ccccc2)CN1C1CCN(Cc2cccc(Cl)c2)CC1` [Compound 18e], at human M2-receptors, affinity was put at a Ki of 327 nM.
Take `O=C1NC(c2ccc(F)cc2)(c2ccc(F)cc2)CN1C1CCN(Cc2ccccc2)CC1` [Compound 27h]: the Ki on human M2-receptors is 206 nM.
`O=C1NC(c2ccc(F)cc2)(c2ccc(F)cc2)CN1C1CCN(Cc2cccc(F)c2)CC1` [Compound 18an] yielded an inhibitory constant (Ki) at human M2-receptors of 1140 nM.
`O=C1NC(c2cccs2)(c2cccs2)CN1C1CCN(Cc2ccccc2)CC1` [Compound 27i]: on human M2-receptors, affinity was put at a Ki of 96.8 nM.
In turn, `O=C1NC(c2ccccc2)(C2CCCCC2)CN1C1CCN(Cc2ccccc2)CC1` (centres unmarked) [Compound 27c] yielded a Ki at human M2-receptors of 73.3 nM.
Take `C[N+]1(CC(=O)c2cccs2)CC[C@@H](N2CC(c3ccc(F)cc3)(c3ccc(F)cc3)NC2=O)C1` (some centres unmarked) [Compound 19bp]: the figures for the Ki at human M2-receptors and on human M3-receptors were 80.9 nM and 1.96 nM, respectively.

In general, Ki refers to the dissociation constant of the complex between target and ligand, obtained from inhibition or displacement.
